Experimental data from ChEMBL document CHEMBL4419120, “Bitter taste receptors” (2015).

Key:
Format in all cases: functional, cell-based
[1] = target: T1, Taste receptor type 2 member 19 (Homo sapiens) (UniProt P59542); test: Activity at human TAS2R48 expressed in HEK-293T-Galpha16-gustducin44 cells assessed as threshold concentration of compound at which point receptor detects compounds by measuring calcium response by FLIPR assay
T1 sequence (whole entry): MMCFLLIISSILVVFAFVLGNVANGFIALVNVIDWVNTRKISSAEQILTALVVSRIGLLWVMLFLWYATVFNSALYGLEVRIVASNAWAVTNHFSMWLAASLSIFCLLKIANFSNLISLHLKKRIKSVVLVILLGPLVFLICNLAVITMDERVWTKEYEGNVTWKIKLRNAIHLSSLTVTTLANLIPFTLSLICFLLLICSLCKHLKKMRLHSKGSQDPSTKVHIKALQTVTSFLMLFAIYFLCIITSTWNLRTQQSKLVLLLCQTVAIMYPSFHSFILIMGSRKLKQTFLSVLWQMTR

[2] = target: T2, Taste receptor type 2 member 46 (Homo sapiens) (UniProt P59540); test: Activity at human TAS2R46 expressed in HEK-293T-Galpha16-gustducin44 cells assessed as threshold concentration of compound at which point receptor detects compounds by measuring calcium response by FLIPR assay
T2 sequence (whole entry): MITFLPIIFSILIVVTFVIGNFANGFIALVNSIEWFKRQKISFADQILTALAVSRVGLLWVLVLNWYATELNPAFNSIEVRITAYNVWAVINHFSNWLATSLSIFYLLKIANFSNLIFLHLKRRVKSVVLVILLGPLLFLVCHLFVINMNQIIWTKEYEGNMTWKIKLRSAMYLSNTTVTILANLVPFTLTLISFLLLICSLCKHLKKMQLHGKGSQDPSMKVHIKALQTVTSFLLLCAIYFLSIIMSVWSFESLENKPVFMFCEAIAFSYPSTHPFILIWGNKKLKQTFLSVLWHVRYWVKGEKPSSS

[3] = target: T3, Taste receptor type 2 member 10 (Homo sapiens) (UniProt Q9NYW0); test: Activity at human TAS2R10 expressed in HEK-293T-Galpha16-gustducin44 cells assessed as threshold concentration of compound at which point receptor detects compounds by measuring calcium response by FLIPR assay
T3 sequence (whole entry): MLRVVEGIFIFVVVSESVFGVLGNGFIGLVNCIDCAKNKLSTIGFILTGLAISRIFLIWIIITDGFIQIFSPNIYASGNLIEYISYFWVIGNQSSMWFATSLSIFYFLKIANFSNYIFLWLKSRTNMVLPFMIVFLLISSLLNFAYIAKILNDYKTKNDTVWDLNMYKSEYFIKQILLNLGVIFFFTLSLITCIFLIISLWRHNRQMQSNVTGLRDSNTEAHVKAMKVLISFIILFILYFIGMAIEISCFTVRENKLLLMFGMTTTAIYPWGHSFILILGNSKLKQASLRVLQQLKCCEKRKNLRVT

[4] = target: T4, Taste receptor type 2 member 45 (Homo sapiens) (UniProt P59539); test: Activity at human TAS2R45 expressed in HEK-293T-Galpha16-gustducin44 cells assessed as threshold concentration of compound at which point receptor detects compounds by measuring calcium response by FLIPR assay
T4 sequence (whole entry): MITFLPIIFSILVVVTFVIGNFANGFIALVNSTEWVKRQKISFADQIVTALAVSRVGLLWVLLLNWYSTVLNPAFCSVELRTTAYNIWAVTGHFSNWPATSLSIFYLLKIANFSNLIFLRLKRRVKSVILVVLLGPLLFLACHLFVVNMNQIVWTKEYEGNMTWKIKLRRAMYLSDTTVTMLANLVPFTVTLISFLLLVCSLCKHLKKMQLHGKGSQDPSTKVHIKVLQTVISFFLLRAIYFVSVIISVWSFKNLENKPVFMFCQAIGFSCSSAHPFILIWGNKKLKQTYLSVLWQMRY

- Activity [1]: 0.03 mM
- Activity [2]: 0.001 mM
- Activity [3]: 0.01 mM
- Activity [4]: 0.003 mM
SMILES: CC1=C[C@@H]2[C@@H]3C4C(=C(C)[C@@H]3[C@@]13[C@@H]2[C@@](C)(O)CC[C@H]1[C@H](C)C(=O)O[C@@H]13)[C@H]1OC(=O)[C@@H](C)[C@@H]1CC[C@]4(C)O (some centres undefined)
